From PubChem BioAssay AID2060499 (Molecular Pharmacology Branch, DTP, NCI, 2025)

Tested on: 777334-354-R2-J4-PDC tumor spheroids with HUVEC/MSC, viability
Test: Anticancer human tumor 777334-354-R2-J4-PDC patient-derived pancreatic adenocarcinoma cell line growth inhibition [GQUAD]
Conditions: for IC50: curve of first compound; for viability, T/C: stronger effect = lower value
In short: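 Viability of tumor cells grown as complex spheroids with endothelial and stromal cells, exposed to drug combinations. Top concentration at or near clinical Cmax (else 10 microM), diluted in half-log increments.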

[1] = second compound 0.0316 µM, first compound 0.0316 µM
[2] = second compound 0.0316 µM, first compound 0.1 µM
[3] = second compound 0.0316 µM, first compound 0.316 µM
[4] = second compound 0.0316 µM, first compound 1 µM
[5] = second compound 0.0316 µM, first compound 3.16 µM
[6] = second compound 0.0316 µM, first compound 10 µM
[7] = second compound 0.1 µM, first compound 0.0316 µM
[8] = second compound 0.1 µM, first compound 0.1 µM
[9] = second compound 0.1 µM, first compound 0.316 µM
[10] = second compound 0.1 µM, first compound 1 µM
[11] = second compound 0.1 µM, first compound 3.16 µM
[12] = second compound 0.1 µM, first compound 10 µM
[13] = second compound 0.316 µM, first compound 0.0316 µM
[14] = second compound 0.316 µM, first compound 0.1 µM
[15] = second compound 0.316 µM, first compound 0.316 µM
[16] = second compound 0.316 µM, first compound 1 µM
[17] = second compound 0.316 µM, first compound 3.16 µM
[18] = second compound 0.316 µM, first compound 10 µM
[19] = second compound 1 µM, first compound 0.0316 µM
[20] = second compound 1 µM, first compound 0.1 µM
[21] = second compound 1 µM, first compound 0.316 µM
[22] = second compound 1 µM, first compound 1 µM
[23] = second compound 1 µM, first compound 3.16 µM
[24] = second compound 1 µM, first compound 10 µM
[25] = second compound 3.16 µM, first compound 0.0316 µM
[26] = second compound 3.16 µM, first compound 0.1 µM
[27] = second compound 3.16 µM, first compound 0.316 µM
[28] = second compound 3.16 µM, first compound 1 µM
[29] = second compound 3.16 µM, first compound 3.16 µM
[30] = second compound 3.16 µM, first compound 10 µM
[31] = second compound 10 µM, first compound 0.0316 µM
[32] = second compound 10 µM, first compound 0.1 µM
[33] = second compound 10 µM, first compound 0.316 µM
[34] = second compound 10 µM, first compound 1 µM
[35] = second compound 10 µM, first compound 3.16 µM
[36] = second compound 10 µM, first compound 10 µM
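Further: spheroids exposed to compounds for 7 days before readout.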

Work on `CC1COCCN1c1cc(C2(O)CC3CCC(C2)O3)c2cnn(-c3ccn[nH]3)c2n1` (centres undefined) + Cc1cnc(CNC(=O)c2c(=O)c3ccc(N4CCCN(C)CC4)nc3n3c2sc2ccccc23)cn1 yielded an IC50 (second compound 0.0316 µM) of 0.128 µM, an IC50 (second compound 0.1 µM) of 0.144 µM and an IC50 (second compound 0.316 µM) of 0.158 µM. The IC50 (second compound 1 µM) was 0.13 µM, the IC50 (second compound 3.16 µM) was less than 0.0316 µM and the IC50 (second compound 10 µM) was less than 0.0316 µM. It also gave a viability, T/C [1] of 62%, a viability, T/C [2] of 46.6% and a viability, T/C [3] of 45.6%. For the same compound, the viability, T/C [4] was 37.3%, the viability, T/C [5] was 32.6% and the viability, T/C [6] was 21.5%. The viability, T/C [7] was 65.9%, the viability, T/C [8] was 46.5% and the viability, T/C [9] was 46.4%. The viability, T/C [10] was 34.8%, the viability, T/C [11] was 31.9% and the viability, T/C [12] was 18.4%. It also gave a viability, T/C [13] of 54.1%, a viability, T/C [14] of 55% and a viability, T/C [15] of 46%. It also gave a viability, T/C [16] of 37.1%, a viability, T/C [17] of 30.6% and a viability, T/C [18] of 16.5%. For the same compound, the viability, T/C [19] was 59.7%, the viability, T/C [20] was 46.1% and the viability, T/C [21] was 45.6%. The viability, T/C [22] was 39.7%, the viability, T/C [23] was 26.4% and the viability, T/C [24] was 15%. It also gave a viability, T/C [25] of 40.8%, a viability, T/C [26] of 46.1% and a viability, T/C [27] of 46.3%. The viability, T/C [28] was 34.2%, the viability, T/C [29] was 21.4% and the viability, T/C [30] was 14.9%. It also gave a viability, T/C [31] of 46.8%, a viability, T/C [32] of 42.8% and a viability, T/C [33] of 39%. The viability, T/C [34] was 29.6%, the viability, T/C [35] was 18.7% and the viability, T/C [36] was 11.2%.

In the case of `O=C(c1cc(Cc2n[nH]c(=O)c3ccccc23)ccc1F)N1CCN(C(=O)C2CC2)CC1` + Cc1cnc(CNC(=O)c2c(=O)c3ccc(N4CCCN(C)CC4)nc3n3c2sc2ccccc23)cn1, the IC50 (second compound 0.0316 µM) is reported as greater than 10 µM, the IC50 (second compound 0.1 µM) is reported as greater than 10 µM and the IC50 (second compound 0.316 µM) is reported as greater than 10 µM. The IC50 (second compound 1 µM) was greater than 10 µM, the IC50 (second compound 3.16 µM) was greater than 10 µM and the IC50 (second compound 10 µM) was greater than 10 µM. The viability, T/C [1] was 85.9%, the viability, T/C [2] was 94.2% and the viability, T/C [3] was 96.6%. The viability, T/C [4] was 92%, the viability, T/C [5] was 90.6% and the viability, T/C [6] was 75.7%. The viability, T/C [7] was 88.9%, the viability, T/C [8] was 88.2% and the viability, T/C [9] was 91.8%. For the same compound, the viability, T/C [10] was 88%, the viability, T/C [11] was 76.7% and the viability, T/C [12] was 70.3%. The viability, T/C [13] was 79.9%, the viability, T/C [14] was 76.5% and the viability, T/C [15] was 69.7%. The viability, T/C [16] was 75.1%, the viability, T/C [17] was 74.3% and the viability, T/C [18] was 64.9%. The viability, T/C [19] was 73.8%, the viability, T/C [20] was 75.6% and the viability, T/C [21] was 76.2%. The viability, T/C [22] was 68.8%, the viability, T/C [23] was 69.5% and the viability, T/C [24] was 60.4%. It also gave a viability, T/C [25] of 56.5%, a viability, T/C [26] of 55.9% and a viability, T/C [27] of 63%. It also gave a viability, T/C [28] of 64.2%, a viability, T/C [29] of 64.9% and a viability, T/C [30] of 56.2%. It also gave a viability, T/C [31] of 61.5%, a viability, T/C [32] of 54.2% and a viability, T/C [33] of 51.9%. The viability, T/C [34] was 55.8%, the viability, T/C [35] was 61.9% and the viability, T/C [36] was 47.7%.
